Assays:
S. aureus 209P NIHJ JC1 = test: Antibacterial activities in vitro (agar plate dilution method); format: cell-based; conditions: Staphylococcus aureus; Mueller Hinton agar, inoculum size 10⁶ CFU/mℓ, 37°C for 16 hours
Experimental: (1) Antibacterial activities in vitro The antibacterial activities were measured by the following agar plate dilution method. One platinum loopful of each test microorganism incubated overnight in Mueller Hinton broth, was inoculated to Mueller Hinton agar (inoculum size: 10⁶ CFU/mℓ). Such a culture medium contained a test compound in a predetermined concentration.

S. aureus 4970 = test: Protective effects against experimental infectious disease of mice; format: in vivo, Male mice (ddY); conditions: Staphylococcus aureus, 4970, 96 h; oral administration one hour after inoculation of 5 x 10⁵ cells in 5% mucin; mortality four days later; eight mice per group; read-out: ED₅₀
Experimental: (2) Protective effects against experimental infectious disease of mice
Male mice (ddY) of 4 weeks old having body weights of 20±1 g were employed, and the test was conducted with eight mice per group. Microorganism used: S. aureus 4970
5 x 10⁵ cells of the pathogenic microorganism suspended in 5% mucin were […] injected to each mouse. One hour after the inoculation of the microorganism, the compound of the present invention was orally administered in the form of solutions having various concentrations. Four days later, the mortality of the mice was determined, and the ED₅₀ value was calculated.

[1] = Concentration in blood and recovery rate in urine after oral administration (bioassay); format: in vivo, ddY male mice; conditions: mouse, 40 mg/kg orally, mice, bioassay with S. lutea PC 11001, Example 26 quantified as its non-ester form (Example 25); for concentration at 0.25 h: read-out: Concentration in blood 0.25 hr later; for concentration at 0.5 h: read-out: Concentration in blood 0.5 hr later
Experimental: (3) Concentration in blood and recovery rate in urine
ddY male mice of 4 weeks old
40 mg/kg of the test compound was orally administered to each mouse, and the change with time of the concentration in blood and the recovery rate in urine for from 0 to 6 hours were measured. The quantitative analysis was conducted by a bioassay using S. lutea PC 11001 as the test microorganism. With respect to the compound of Example 26, the quantitative analysis was conducted in the form of its non-ester form i.e. as the compound of Example 25.

Row | SMILES | MIC (S. aureus 209P NIHJ JC1) [µg/mL] | ED50 (S. aureus 4970) [mg/kg] | concentration at 0.25 h ([1]; blood) [ng/mL] | concentration at 0.5 h ([1]; blood) [ng/mL] | concentration at 1 h ([1]; blood, read-out: Concentration in blood 1 hr later) [ng/mL] | dose excreted at 6 h ([1]; urine, 0-6 hrs) [%]
1 | C=C(C)C1=C(C(=O)O)N2C(=O)[C@H]([C@@H](C)O)[C@H]2[C@H]1C [Example 25, Sodium (1S,5R,6S)-6-((1R)-1-hydroxyethyl)-2-(1-methylvinyl)-1-methylcarbapen-2-em-3-carboxylate] | 0.05 | 0.34 | 4100 | 2900 | 1600 | 1.8
2 | C=C(C)C1=C(C(=O)OCOC(=O)C(C)(C)C)N2C(=O)[C@H]([C@@H](C)O)[C@H]2[C@H]1C [Example 26, Pivaloyloxymethyl (1S,5R,6S)-6-((1R)-1-hydroxyethyl)-2-(1-methylvinyl)-1-methylcarbapen-2-em-3-carboxylate] | – | 0.36 | 44900 | 29100 | – | –

Source: patent EP0430037A2, “Process for producing 2-carbon-substituted carbapenem derivatives” (BANYU PHARMACEUTICAL CO., LTD., priority 1989, dated 1991)
